In patent US8426179B2, “Synthetic peptide and peptide conjugates and related tissue coupling methods via transglutaminase enzyme” (priority 2007, dated 2013):
Entries after “also recorded” stand apart in the source; their conditions may differ. Residues, ends and D or L forms follow the SMILES beside them. No end group written: not given here. *: point of attachment. X1 = C[C@]12CCC(=O)C=C1CC[C@@H]1[C@@H]2[C@@H](O)C[C@@]2(C)[C@H]1CC[C@]2(O)C(=O)COC(=O)CCC(=O)*

Legend:
[1] = Hydrolysis of the hydrocortisone prodrug in normal synovial fluid; type: in vitro ADME, bovine
Experimental: A 30 μL portion of each sample was collected at 0.5, 1, 2, 4, 7, 24, and 48 hours and added to a 60 μL mixture of water:acetonitrile:TFA (79:20:1) to prevent further hydrolysis. This solution also contained 2 mM 6α-methyl prednisolone as an internal standard. The samples were then stored at −20° C. until analyzed with RP-HPLC and eluted with a linear gradient of 24-55% acetonitrile in water with 0.1% TFA. The amount of hydrocortisone hydrolyzed from the prodrug was determined by comparing its peak area to that of 6α-methyl prednisolone. The T50% of the prodrug was calculated from 0.693/S, where S is the mean slope giving the best correlation coefficient in the linear part of the logarithmic curve of unhydrolyzed prodrug (1-[hydrocortisone]) versus time. […] Thirty microliter samples were collected at 10, 20, 30, and 60 minutes and analyzed as previously described.

[2] = Release of hydrocortisone from coupled prodrugs on the articular surface of cartilage
Experimental: After the overnight rinse in Buffer 2 with protease inhibitors and the subsequent washes with Buffer 1, each sample was incubated in 100 μL of sterile Buffer 1, normal bovine synovial fluid, or human osteoarthritic synovial fluid at 37° C. […] At the end of the experiment, the samples were digested and analyzed as previously described.

[3] = system: articular surface of cartilage; assay: Coupling of hydrocortisone prodrugs to the articular surface of cartilage via tTG; type: biochemical, bovine; conditions: in the absence of tTG
Experimental: Modified tissue samples were immersed in tissue freezing media and frozen at −80° C. until use. Tissue slices (25 μm thick) were cut using a cryostat (Microm HM505N, Carl Zeiss) and the freezing media was removed with 3 washes of Buffer 1. Blocking was performed with 4% goat serum in Buffer 1 (blocking buffer) for 1 hour at room temperature. The tissue sections were then incubated with 10 μg/mL mouse anti-hydrocortisone antibody for 1.5 h in the blocking buffer at room temperature, rinsed 3 times with Buffer 1 for 5 minutes each, and then incubated with fluorescein conjugated goat anti-mouse antibody (1/200) in blocking buffer for 1 hour. Samples were rinsed again with Buffer 1 and then imaged using a Leica epifluorescent microscope (λex=495 nm, λem=520 nm for fluorescein) and a SPOT RT digital camera (Diagnostic Instruments, Sterling Heights, Mich.).

cartilage = conditions: for average depth of peptide coupling: with tTG, chondroitinase ABC digested cartilage, along the cut edge
Experimental: For the coupling of peptide conjugates to cartilage sections, osteochondral plugs were extracted from adult bovine metacarpophalangeal joints using a hole punch with a diameter of 0.793 cm. Samples were then frozen in tissue freezing media and stored at −80° C. until use. Vertical sections (25 μm), which included the articular surface as well as a portion of the underlying bone, were cut using a cryostat (Microm HM505N, Carl Zeiss) and the freezing media was removed with 3 washes of Tris buffered saline (TBS) (50 mM Tris, 100 mM NaCl) at pH 7.4. For the penetration studies, four millimeter by two millimeter rectangular samples of cartilage were excised from adult bovine metacarpophalangeal joint to a depth of 200-250 microns from the articular surface. Samples were frozen as described earlier for later use, at which time they were thawed and rinsed in TBS.
Four millimeter by two millimeter rectangular samples of cartilage were thawed and rinsed, after which the chondroitinase ABC digestion and tTG reactions with the peptide and peptide-PEG conjugates were performed as stated above. […] The samples were then frozen in tissue freezing media followed by cutting using a cryostat. Twenty micron thick vertical sections were collected from each cartilage piece, rinsed in TBS, blocked with 1% BSA TBS containing 0.1% Tween (TBST), and incubated with peroxidase conjugated anti-biotin antibody at 5 μg/mL in 1% BSA in TBS-T for 2 hours at room temperature. Samples were rinsed 4 times with TBS and 4 times with distilled water. Finally, the anti-biotin antibody was detected using a DAB kit which contains the peroxidase substrate 3,3′-diaminobenzidine yielding a brown color. Samples were imaged using a Leica microscope (brightfield) and a SPOT RT digital camera.
Adobe Photoshop (Adobe, Inc, San Jose, Calif.) was used to measure the depth to which the peptide and peptide-PEG conjugates were detected. The depth of staining into the cartilage along the cut surface perpendicular to the articular surface was measured at distances of 60, 120 and 180 microns from the articular surface for each sample. The average depth of staining for each sample was calculated from these three measurements. For each peptide and peptide-PEG conjugate, an overall mean depth of staining was determined from the measurements of three samples.
In a separate series of experiments, 2 mm by 4 mm by 200-250 μm pieces of cartilage were incubated with each peptide-PEG conjugate and tTG. At the completion of the reaction, the cartilage pieces were frozen and sectioned and the coupled peptide conjugates were detected with a perioxidase anti-biotin antibody. The bound antibody was detected with DAB reagent which forms a brown precipitate in the presence of perioxidase. […] The depth of peptide penetration and coupling was measured along the cut edge at 60, 120, and 180 μm from the articular surface as shown schematically in FIG. 6.

osteonectin = target: T1, osteonectin (Homo sapiens, UniProt P09486); assay: Reaction of peptide conjugates with cartilage ECM protein in solution via tTG; type: biochemical; conditions: for reactivity / normalized band intensity on western blot: osteonectin, 500 μM conjugate, 0.05 U/mL tTG, 30 min at 37° C.; for number of conjugate molecules coupled per protein (MALDI-TOF): osteonectin with tTG
T1 construct: purchased Biodesign, Saco, Me
T1 sequence (P09486 18-303): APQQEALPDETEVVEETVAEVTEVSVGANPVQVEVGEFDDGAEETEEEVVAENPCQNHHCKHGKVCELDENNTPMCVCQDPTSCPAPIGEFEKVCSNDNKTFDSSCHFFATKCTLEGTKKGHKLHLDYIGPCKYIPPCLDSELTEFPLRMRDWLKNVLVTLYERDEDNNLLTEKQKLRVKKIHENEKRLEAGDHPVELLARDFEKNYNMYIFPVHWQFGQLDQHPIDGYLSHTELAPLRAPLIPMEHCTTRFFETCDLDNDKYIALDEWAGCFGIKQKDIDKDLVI
Experimental: (§1) Fibronectin, collagen II, osteonectin, and osteopontin were separately combined at 0.1% (w/v) in 100 mM Tris and 5 mM CaCl2 with 500 μM peptide-PEG conjugates and 0.05 U/mL tTG. The reaction was allowed to proceed for 30 min at 37° C. and then stopped with the addition of iodoacetamide (1 mM final concentration). Control experiments without transglutaminse were also performed. The proteins were then separated using SDS-PAGE with either 7.5% fibronectin and collagen II) or 10% (osteonectin and osteopontin) gels, transferred to PVDF membranes which were then blocked with 2% BSA in TBS with 0.1% Tween (TBS-T). The modified proteins were probed with peroxidase conjugated ExtrAvidin. Detection of bound ExtrAvidin was accomplished using ECL Plus Western Blotting Detection Reagents and imaged on a Storm 860 imager (GE Healthcare Biosciences, Piscataway, N.J.). Band intensities were measured using ImageQuant (GE Healthcare Biosciences). Statistical analysis was performed using one-way ANOVA and Tukey's post-hoc test with 95% confidence intervals with SPSS (SPSS, Chicago, Ill.). Reactions of B72Q and B72K with osteonectin and osteopontin were dialyzed against 10 mM acetic acid and then analyzed by MALDI-TOF MS.

Fibronectin = target: T2, Fibronectin (Homo sapiens, UniProt P02751); assay: as above; type: biochemical; conditions: 500 μM conjugate, 0.05 U/mL tTG, 30 min at 37° C.
T2 construct: purchased Sigma, St. Louis, Mo
T2 sequence (P02751 32-2477, species assumed): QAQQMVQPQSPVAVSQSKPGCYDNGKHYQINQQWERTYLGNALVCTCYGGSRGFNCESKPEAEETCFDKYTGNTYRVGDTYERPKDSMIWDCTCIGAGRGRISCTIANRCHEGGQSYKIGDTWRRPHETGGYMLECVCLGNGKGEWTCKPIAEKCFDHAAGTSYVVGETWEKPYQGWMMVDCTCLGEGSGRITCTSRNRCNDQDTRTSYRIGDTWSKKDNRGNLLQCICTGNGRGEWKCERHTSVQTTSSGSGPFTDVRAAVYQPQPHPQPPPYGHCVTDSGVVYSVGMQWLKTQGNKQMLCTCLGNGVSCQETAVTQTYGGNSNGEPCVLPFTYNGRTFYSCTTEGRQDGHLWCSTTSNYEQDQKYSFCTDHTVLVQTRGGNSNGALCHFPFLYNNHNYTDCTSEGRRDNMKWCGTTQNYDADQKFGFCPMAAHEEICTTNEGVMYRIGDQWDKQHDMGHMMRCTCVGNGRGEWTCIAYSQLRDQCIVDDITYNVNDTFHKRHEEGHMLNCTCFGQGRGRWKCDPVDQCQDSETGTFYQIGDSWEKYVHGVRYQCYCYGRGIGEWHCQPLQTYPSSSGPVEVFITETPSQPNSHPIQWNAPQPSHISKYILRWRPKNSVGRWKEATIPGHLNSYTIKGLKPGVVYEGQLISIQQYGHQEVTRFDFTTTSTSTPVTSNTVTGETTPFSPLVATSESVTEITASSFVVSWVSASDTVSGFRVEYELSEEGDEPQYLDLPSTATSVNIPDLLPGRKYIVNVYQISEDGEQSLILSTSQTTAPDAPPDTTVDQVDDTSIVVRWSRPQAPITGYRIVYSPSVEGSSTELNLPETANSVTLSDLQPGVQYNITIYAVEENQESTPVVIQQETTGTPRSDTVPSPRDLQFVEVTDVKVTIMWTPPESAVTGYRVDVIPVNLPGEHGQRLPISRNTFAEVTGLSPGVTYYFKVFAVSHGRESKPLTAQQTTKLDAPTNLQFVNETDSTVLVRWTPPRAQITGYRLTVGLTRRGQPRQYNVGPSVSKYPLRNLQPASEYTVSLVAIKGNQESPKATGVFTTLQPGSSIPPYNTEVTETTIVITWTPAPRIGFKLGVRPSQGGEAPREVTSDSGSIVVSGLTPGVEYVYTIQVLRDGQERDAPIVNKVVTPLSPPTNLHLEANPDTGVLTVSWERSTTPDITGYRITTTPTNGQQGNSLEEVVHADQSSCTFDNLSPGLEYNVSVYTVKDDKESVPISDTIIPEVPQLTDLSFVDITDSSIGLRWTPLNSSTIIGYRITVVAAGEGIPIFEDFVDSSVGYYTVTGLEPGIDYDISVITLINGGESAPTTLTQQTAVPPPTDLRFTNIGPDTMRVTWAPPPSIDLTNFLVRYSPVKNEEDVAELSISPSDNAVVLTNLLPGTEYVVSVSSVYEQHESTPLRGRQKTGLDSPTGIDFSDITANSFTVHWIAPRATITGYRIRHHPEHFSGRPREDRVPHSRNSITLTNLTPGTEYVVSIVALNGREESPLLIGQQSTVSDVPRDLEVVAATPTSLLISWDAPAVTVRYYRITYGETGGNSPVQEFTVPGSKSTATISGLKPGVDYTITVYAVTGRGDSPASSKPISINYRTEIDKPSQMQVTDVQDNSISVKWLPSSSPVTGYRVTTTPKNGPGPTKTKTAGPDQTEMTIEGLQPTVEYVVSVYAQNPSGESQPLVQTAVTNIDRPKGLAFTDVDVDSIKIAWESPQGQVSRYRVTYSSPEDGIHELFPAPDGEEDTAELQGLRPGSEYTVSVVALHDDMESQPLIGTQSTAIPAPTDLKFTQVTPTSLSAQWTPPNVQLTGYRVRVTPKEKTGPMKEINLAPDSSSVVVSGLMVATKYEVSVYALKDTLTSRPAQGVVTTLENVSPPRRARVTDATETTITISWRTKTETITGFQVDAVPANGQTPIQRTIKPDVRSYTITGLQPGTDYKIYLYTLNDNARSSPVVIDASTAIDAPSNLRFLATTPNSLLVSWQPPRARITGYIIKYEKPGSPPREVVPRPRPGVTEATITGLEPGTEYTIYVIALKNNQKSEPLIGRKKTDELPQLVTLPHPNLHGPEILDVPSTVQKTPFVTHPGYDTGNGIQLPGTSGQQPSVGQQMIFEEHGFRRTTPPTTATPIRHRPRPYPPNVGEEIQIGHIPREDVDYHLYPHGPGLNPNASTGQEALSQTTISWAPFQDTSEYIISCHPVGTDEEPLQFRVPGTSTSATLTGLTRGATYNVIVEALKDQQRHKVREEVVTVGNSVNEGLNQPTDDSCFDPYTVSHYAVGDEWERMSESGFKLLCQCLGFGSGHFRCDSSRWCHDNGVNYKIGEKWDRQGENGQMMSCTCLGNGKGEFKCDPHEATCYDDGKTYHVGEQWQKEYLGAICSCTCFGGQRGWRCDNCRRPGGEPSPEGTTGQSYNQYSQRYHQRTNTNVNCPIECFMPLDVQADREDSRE
Experimental: as §1

collagen II = target: T3, collagen II (Homo sapiens, UniProt P02458); assay: as above; type: biochemical; conditions: type II collagen, 500 μM conjugate, 0.05 U/mL tTG, 30 min at 37° C.
T3 construct: isolated by pepsin digestion, which yields primarily the triple helical region of collagen II; purchased Chondrex, Redmond, Wash
T3 sequence (P02458 201-1214 limits assumed): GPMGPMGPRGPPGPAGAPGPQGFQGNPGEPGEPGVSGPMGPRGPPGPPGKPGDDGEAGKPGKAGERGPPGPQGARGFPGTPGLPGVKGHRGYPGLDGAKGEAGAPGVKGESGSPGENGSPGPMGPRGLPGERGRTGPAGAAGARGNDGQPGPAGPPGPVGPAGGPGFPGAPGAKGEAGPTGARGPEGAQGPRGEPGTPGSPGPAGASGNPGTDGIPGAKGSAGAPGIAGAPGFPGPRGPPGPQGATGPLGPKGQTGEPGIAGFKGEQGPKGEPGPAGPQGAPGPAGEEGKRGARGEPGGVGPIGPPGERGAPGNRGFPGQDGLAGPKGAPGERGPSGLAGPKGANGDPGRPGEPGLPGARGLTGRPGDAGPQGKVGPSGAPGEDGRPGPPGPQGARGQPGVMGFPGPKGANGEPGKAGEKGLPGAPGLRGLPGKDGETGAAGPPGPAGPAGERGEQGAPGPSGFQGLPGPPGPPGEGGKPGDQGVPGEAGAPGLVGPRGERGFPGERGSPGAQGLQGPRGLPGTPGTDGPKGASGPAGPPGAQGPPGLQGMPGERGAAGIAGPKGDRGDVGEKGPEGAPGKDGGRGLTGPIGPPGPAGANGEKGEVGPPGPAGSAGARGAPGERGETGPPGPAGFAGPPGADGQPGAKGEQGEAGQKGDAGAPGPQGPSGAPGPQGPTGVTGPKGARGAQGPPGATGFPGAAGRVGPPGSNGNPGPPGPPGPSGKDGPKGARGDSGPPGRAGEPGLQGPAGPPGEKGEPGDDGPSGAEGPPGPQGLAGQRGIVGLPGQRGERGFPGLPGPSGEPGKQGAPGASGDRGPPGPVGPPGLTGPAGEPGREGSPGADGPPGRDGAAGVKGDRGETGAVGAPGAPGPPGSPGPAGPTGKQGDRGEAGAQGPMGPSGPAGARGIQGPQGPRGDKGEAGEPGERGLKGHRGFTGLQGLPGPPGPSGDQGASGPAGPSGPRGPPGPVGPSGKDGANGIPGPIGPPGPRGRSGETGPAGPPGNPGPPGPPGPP
Experimental: as §1

cartilage sections = assay: Coupling of peptide conjugates to cartilage sections via tTG, fluorescein anti-biotin staining; type: biochemical, bovine
Experimental: Partial depolymerization of glycosaminoglycans in the tissue was accomplished by digesting with chondroitinase ABC at 40 mU/mL in 50 mM Tris, 70 mM sodium acetate and 0.01% bovine serum albumin (BSA) at pH 8 for 30 minutes at 37° C. Samples were then rinsed 3 times with TBS and blocked with 1% BSA in TBS for one hour at room temperature. The tTG reaction conditions used were similar to a previously described method. (See, Aeschlimann D, Wetterwald A, Fleisch H, and Paulsson M. Expression of tissue transglutaminase in skeletal tissues correlates with events of terminal differentiation of chondrocytes. Journal of Cell Biology 1993; 120: 1461-1470.) The cartilage sections were incubated in 500 μL of 50 μM peptide or peptide-PEG conjugate, 0.5 U/mL tTG, 5 mM CaCl2, 2.5 mM dithiothreitol and 100 mM Tris, at pH 8.3 for 30 min at 37° C. Control experiments were performed in the absence of tTG. After completion of the tTG reaction, the solution was removed and samples were rinsed 3 times with 1% BSA in TBS for 5 minutes each. The cartilage sections were then incubated with fluorescein conjugated anti-biotin antibody at 10 μg/mL in 1% BSA in TBS for 2 hours at room temperature. Samples were rinsed 4 times with TBS for 5 minutes each, followed by blocking with 10% donkey serum for 1 hour and incubation with rabbit anti-collagen II antibody in TBS containing 10% donkey serum for 1 hour. The samples were rinsed 3 times with 10% donkey serum in TBS and then incubated with Texas Red conjugated donkey anti-rabbit antibody. Samples were rinsed again with TBS and then imaged using a Leica epifluorescent microscope (λex=495 nm, λem=520 for fluorescein and λex=596 nm, λem=620 for Texas Red) and a SPOT RT digital camera (Diagnostic Instruments, Sterling Heights, Mich.).
Images were analyzed using Metamorph image analysis software (Molecular Devices, Sunnyvale, Calif.). Fluorescein fluorescence was measured at three randomly selected areas of the middle zone on each cartilage section image and then averaged. A similar procedure was utilized to determine Texas Red fluorescence. The fluorescein fluorescence intensity was then normalized to the fluorescence of the Texas Red for each cartilage section image in order to account for potential ECM differences between sections. Finally, the average green fluorescence for each peptide-PEG conjugate was then normalized by dividing by the red fluorescence.

osteopontin = target: T4, osteopontin (Homo sapiens, UniProt P10451); assay: Reaction of peptide conjugates with cartilage ECM protein in solution via tTG; type: biochemical; conditions: for reactivity / normalized band intensity on western blot: osteopontin, 500 μM conjugate, 0.05 U/mL tTG, 30 min at 37° C.; for number of conjugate molecules coupled per protein (MALDI-TOF): osteopontin with tTG
T4 construct: purchased R&D Systems, Minneapolis, Minn
T4 sequence (P10451 17-314, species assumed): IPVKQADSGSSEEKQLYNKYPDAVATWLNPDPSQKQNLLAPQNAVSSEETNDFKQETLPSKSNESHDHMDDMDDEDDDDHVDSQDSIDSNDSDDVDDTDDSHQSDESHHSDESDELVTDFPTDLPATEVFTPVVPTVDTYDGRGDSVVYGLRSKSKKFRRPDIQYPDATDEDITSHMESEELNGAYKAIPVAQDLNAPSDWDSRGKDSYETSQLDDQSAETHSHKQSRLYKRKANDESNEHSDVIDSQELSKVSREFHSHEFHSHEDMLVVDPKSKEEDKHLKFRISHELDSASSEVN
Experimental: as §1

[4] = system: Fresh articular cartilage; conditions: in the presence of enzyme
tTG = target: T5, tTG (UniProt P08587); conditions: reactivity with the enzyme (tTG); cited from earlier work
T5 sequence (P08587 1-690): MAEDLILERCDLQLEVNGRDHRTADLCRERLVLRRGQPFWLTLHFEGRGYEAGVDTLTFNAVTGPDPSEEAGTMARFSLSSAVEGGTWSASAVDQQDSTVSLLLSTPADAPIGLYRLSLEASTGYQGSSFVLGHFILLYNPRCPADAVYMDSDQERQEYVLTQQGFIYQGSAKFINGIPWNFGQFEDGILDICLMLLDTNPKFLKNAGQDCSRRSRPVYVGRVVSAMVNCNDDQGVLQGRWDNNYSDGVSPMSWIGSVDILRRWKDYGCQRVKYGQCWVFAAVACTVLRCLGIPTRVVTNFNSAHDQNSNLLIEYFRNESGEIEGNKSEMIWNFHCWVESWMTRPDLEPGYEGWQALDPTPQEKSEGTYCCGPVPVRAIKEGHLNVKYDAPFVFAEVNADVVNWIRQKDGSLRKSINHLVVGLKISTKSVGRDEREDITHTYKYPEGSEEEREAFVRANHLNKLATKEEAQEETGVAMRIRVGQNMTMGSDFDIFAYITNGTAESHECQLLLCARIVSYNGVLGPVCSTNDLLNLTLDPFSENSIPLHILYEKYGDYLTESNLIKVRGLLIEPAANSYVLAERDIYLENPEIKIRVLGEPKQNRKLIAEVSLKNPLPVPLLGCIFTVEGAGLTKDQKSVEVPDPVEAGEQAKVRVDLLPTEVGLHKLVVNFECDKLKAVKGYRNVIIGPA

[5] = in the presence of tTG, 50 μM conjugate, 0.5 U/mL tTG, 30 min at 37° C.

Compound | average depth of peptide coupling (cartilage) [μm] | reactivity / normalized band intensity on western blot (osteonectin) | reactivity / normalized band intensity on western blot (Fibronectin) | reactivity / normalized band intensity on western blot (collagen II) | coupling to cartilage (anti-biotin fluorescence) (cartilage sections; [5]) | reactivity / normalized band intensity on western blot (osteopontin) | other results
C[C@]12CCC(=O)C=C1CC[C@@H]1[C@@H]2[C@@H](O)C[C@@]2(C)[C@H]1CC[C@]2(O)C(=O)COC(=O)CCC(=O)NCC(=O)N[C@@H](Cc1ccccc1)C(=O)N[C@@H](CCCCN)C(=O)NCC(=O)O [TRIP-C, Hydrocortisone-GFKG prodrug] (X1-GFKG-OH) |  |  |  |  |  |  | T50% ([1]; 1.0 mM, 75% normal synovial fluid in Buffer 1, 37° C.): 11.1 min; times more rapid hydrolysis in synovial fluid than in Buffer 1 ([1]; 37° C.): 4; hydrocortisone released from tissue-bound prodrug ([2]; 4 to 48 hours, 37° C., Buffer 1, bovine synovial fluid, human OA synovial fluid): statistical increase in the amount of hydrocortisone released; hydrocortisone hydrolysis from coupled prodrug, TRIP-C compared with TRIP-PC ([2]; any of the fluids utilized): no difference in hydrocortisone hydrolysis
C[C@]12CCC(=O)C=C1CC[C@@H]1[C@@H]2[C@@H](O)C[C@@]2(C)[C@H]1CC[C@]2(O)C(=O)CO [hydrocortisone] |  |  |  |  |  |  | immunofluorescence on articular surface (anti-hydrocortisone) ([3]; 1.0 mM): no immunofluorescence was detected; nonspecific adsorption, hydrocortisone detected on the tissue surface [3]: minimal amount of hydrocortisone detected
Biotin-(EO)2-FKG-NH2 [B2K] | 13 | statistically greater than for B2Q or B72Q | statistically greater than for B2Q or B72Q | statistically greater than for B2Q or B72Q; also recorded: reactive toward collagen II | enzymatically crosslinked to the cartilage sections |  | depth of staining (cartilage; undigested cartilage tissue treated with tTG): 5.8 microns; coupling to cartilage (anti-biotin fluorescence) (cartilage sections; in the absence of tTG): no observed fluorescence
Biotin-(EO)2-FOG-NH2 [B2O] |  | did not demonstrate crosslinking | did not demonstrate crosslinking | did not demonstrate crosslinking | no coupling was detected | did not demonstrate crosslinking | 
Biotin-(EO)2-GNNNLG-NH2 [B2N] |  | did not demonstrate crosslinking | did not demonstrate crosslinking | did not demonstrate crosslinking | no coupling was detected | did not demonstrate crosslinking | 
Biotin-(EO)2-GQQQLG-NH2 [B2Q] | 9.8 |  |  | less reactive toward collagen II in solution | enzymatically crosslinked to the cartilage sections | significantly greater normalized band intensity than the B2K and B72K | coupling to cartilage (anti-biotin fluorescence) (cartilage sections; in the absence of tTG): no observed fluorescence
Biotin-FKG-HA |  |  |  |  |  |  | anti-biotin antibody staining of tissue surface [4]: intense staining
Biotin-PEG-FKG-NH2 [B72K] | 9.8 | statistically greater than for B2Q or B72Q | statistically greater than for B2Q or B72Q | statistically greater than for B2Q or B72Q; also recorded: reactive toward collagen II | enzymatically crosslinked to the cartilage sections |  | number of conjugate molecules coupled per protein (MALDI-TOF) (osteonectin): up to 4; number of conjugate molecules coupled per protein (MALDI-TOF) (osteopontin): one
Biotin-PEG-G-NH2 [B72] |  | did not demonstrate crosslinking | did not demonstrate crosslinking | did not demonstrate crosslinking | lack of fluorescence | did not demonstrate crosslinking | 
Biotin-PEG-GQQQLG-NH2 [B72Q] | 8.6 |  |  | less reactive toward collagen II in solution | enzymatically crosslinked to the cartilage sections |  | number of conjugate molecules coupled per protein (MALDI-TOF) (osteonectin): up to 3; number of conjugate molecules coupled per protein (MALDI-TOF) (osteopontin): up to two
FKG |  |  |  |  | bind to cartilage surfaces via tTG |  | specificity (tTG): 560 mM⁻¹ min⁻¹
GQQQLG (GQQQLG-NH2) [glutamine (acyl donor) peptide substrate of tTG] |  |  |  |  | bind to cartilage surfaces via tTG |  | specificity (tTG): 34.1 mM⁻¹ min⁻¹
